In patent US20100113550A1, “New Crystal Forms” (BIAL - PORTELA AND CA, S.A., priority 2006, published 2010):
Read-outs that look alike come from different tables or passages of the source.

Columns and labels:
Assay type in all cases: physicochemical
[1] = RH stability: storage at controlled relative humidity or drying, checked by XRPD and for deliquescence
Excerpt: Form A samples were stored at lower relative humidities of approximately 9-11, 23 and 32% RH and analyzed by XRPD and Karl-Fischer titration analysis after four weeks (Tables 30 and 31). The samples appeared to be Form A by XRPD. […] Note that the water content in the samples at 23 and 32% RH was slightly higher compared to the initial batch of Form A.
Form X samples were stored at relative humidities of approximately 43, 75 and 90% RH and analyzed by XRPD and Karl-Fischer titration analysis after five weeks (Tables 34 and 35).

[2] = Coulometric Karl Fischer titration for water determination
Procedure: Coulometric Karl Fischer (KF) analysis for water determination was performed using a Mettler Toledo DL39 Karl Fischer titrator. Samples were placed in the KF titration vessel containing approximately Hydranal—Coulomat AD and mixed for 60 seconds to ensure dissolution. The sample was then titrated by means of a generator electrode which produces iodine by electrochemical oxidation: 2I−=>I2+2e. Three replicates were obtained to ensure reproducibility. A NIST-traceable water standard (Hydranal Water Standard 10.0) was analyzed to check the operation of the coulometer. Data were collected and analyzed using LabX Pro Titration v2.10.000.

[3] = RH stability: storage at controlled relative humidity or drying, checked by XRPD and for deliquescence; remark: listed apart in the source
[4] = Approximate solubilities (solvent added until a solution forms)
Excerpt: Approximate solubilities of compound 1, Form A in aqueous mixtures containing high concentrations of organic solvents are given in Table 1. [table]

[5] = Interconversion studies of Forms A and C (slurries, XRPD)
Procedure: A slurry of compound 1, Form A, was prepared in a given solvent and loaded on an orbit shaker at either ambient or elevated temperature for at least 1 day. The liquid phase of the slurry was drawn off with a pipette and filtered through a 0.2-μm filter. A slurry containing compound 1 forms A and C was prepared using the filtered liquid phase from the Form A slurry. The mixture was then loaded on an orbit shaker in a sealed vial at either ambient or elevated temperature for 1 or 7 days. The solids were isolated by vacuum filtration or by drawing the liquid phase off with a pipette and allowing the solids to air dry at ambient conditions prior to analysis. The resulting Forms were characterised by XRPD.

[6] = acetone:water 99:1, hydrochloride

Cl.NCCc1c[nH]c(=S)n1[C@H]1COc2c(F)cc(F)cc2C1 [Form X, (R)-5-(2-Aminoethyl)-1-(6,8-difluorochroman-3-yl)-1,3-dihydroimidazole-2-thione hydrochloride]
Observations ([1]; 90% RH, 5 weeks (Table 34)): looks dry | Form conversion at high relative humidity ([1]; 90% RH, after 4 days and 5 weeks): converted to Form B | % water ([2]; 43% RH, 5 weeks): 5.52% | Moles of water ([2]; 43% RH, 5 weeks): 1.13 mol | % water ([2]; 75% RH, 5 weeks): 8.74% | Moles of water ([2]; 75% RH, 5 weeks): 1.85 mol | % water ([2]; 90% RH, 5 weeks): 6.47% | Moles of water ([2]; 90% RH, 5 weeks): 1.34 mol | Observations ([3]; 43% RH, 5 weeks (Table 34)): looks dry | Observations ([3]; 75% RH, 5 weeks (Table 34)): looks dry | Change by XRPD on drying ([3]; after 6 days and 2 weeks of drying at approximately 70° C.): did not change | Observations ([3]; ~43% RH, 5 weeks (Table 35)): looks dry | Observations ([3]; ~43% RH, 7 days): looks dry | Weight change ([3]; ~43% RH, 7 days): 1.2 mg | Weight change, % ([3]; ~43% RH, 7 days): 3.4% | Observations ([3]; ~75% RH, 5 weeks (Table 35)): looks dry | Observations ([3]; ~75% RH, 7 days): looks dry | Weight change ([3]; ~75% RH, 7 days): 2.4 mg | Weight change, % ([3]; ~75% RH, 7 days): 6.0% | Observations ([3]; ~90% RH, 5 weeks (Table 35)): looks dry | Weight change ([3]; ~90% RH, 1 day): 2.3 mg | Weight change, % ([3]; ~90% RH, 1 day): 5.6% | Observations ([3]; ~90% RH, 7 days): looks dry | Weight change ([3]; ~90% RH, 7 days): 0.9 mg | Weight change, % ([3]; ~90% RH, 7 days): 2.1%

Cl.NCCc1c[nH]c(=S)n1[C@H]1COc2c(F)cc(F)cc2C1 [Amorphous, (R)-5-(2-Aminoethyl)-1-(6,8-difluorochroman-3-yl)-1,3-dihydroimidazole-2-thione hydrochloride]
solubility ([4]; 2,2,2-trifluoroethanol, 50 °C, organic solvent or mixture, 2,2,2-trifluoroethanol, 50° C., read-out: Solubility (approximate) at elevated temperature): 8 mg/mL | Solubility (approximate) ([4]; 2,2,2-trifluoroethanol, hydrochloride): 8 mg/mL | Solubility (approximate) ([4]; acetone, hydrochloride): 49 mg/mL | Solubility (approximate) ([4]; acetonitrile): <1 mg/mL | Solubility compared with the other forms (in words) ([4]; comparison between forms, listed as Amorphous material, hydrochloride): higher solubilities in most organic solvents and water compared to Forms A, B, and C | solubility ([4]; ethanol, 53 °C, organic solvent or mixture, ethanol, 53° C., read-out: Solubility (approximate) at elevated temperature): 11 mg/mL | Solubility (approximate) ([4]; ethanol, hydrochloride): 10 mg/mL | Solubility (approximate) ([4]; ethyl acetate): <1 mg/mL | Solubility (approximate) ([4]; iso-propanol, hydrochloride): 16 mg/mL | Solubility (approximate) ([4]; methanol, hydrochloride): 50 mg/mL | Solubility (approximate) ([4]; methyl ethyl ketone, hydrochloride): 64 mg/mL | solubility ([4]; methyl iso-butyl ketone, organic solvent or mixture, methyl iso-butyl ketone, read-out: Solubility (approximate)): < 1 mg/mL | Solubility (approximate) ([4]; tetrahydrofuran (THF), hydrochloride): 100 mg/mL | Solubility (approximate) ([4]; water, hydrochloride): 36 mg/mL

Cl.NCCc1c[nH]c(=S)n1[C@H]1COc2c(F)cc(F)cc2C1 [Forms A and C, (R)-5-(2-Aminoethyl)-1-(6,8-difluorochroman-3-yl)-1,3-dihydroimidazole-2-thione hydrochloride]
Form resulting from interconversion slurry ([5]; 1-day slurries at room temperature, ethanol and acetone:water 99:1): mixture of Forms C and B, with Form B as a minor component | Form resulting from interconversion slurry ([5]; acetone:water 99:1, 40° C., 1-day slurry): mixture of Forms C and A, with Form A as a minor component | Form resulting from interconversion slurry ([5]; after one week, ambient temperature and 40° C.): Form C | Form resulting from interconversion slurry ([5]; ethanol, 40° C., 1-day slurry): Form C

Cl.NCCc1c[nH]c(=S)n1[C@H]1COc2c(F)cc(F)cc2C1 [Form A, (R)-5-(2-Aminoethyl)-1-(6,8-difluorochroman-3-yl)-1,3-dihydroimidazole-2-thione hydrochloride]
solubility ([4]; 1,4-dioxane:water 99:1, organic solvent or mixture, 1,4-dioxane:water 99:1, read-out: Solubility (approximate)): < 24 mg/mL | solubility ([4]; acetone:water 90:10, organic solvent or mixture, acetone:water 90:10 (9:1), read-out: Solubility (approximate)): > 23 mg/mL | Solubility (approximate) [4, 6]: 1 mg/mL | solubility ([4]; acetonitrile:water 90:10, organic solvent or mixture, acetonitrile:water 90:10 (9:1), read-out: Solubility (approximate)): > 23 mg/mL | solubility ([4]; acetonitrile:water 95:5, organic solvent or mixture, acetonitrile:water 95:5, read-out: Solubility (approximate)): < 23 mg/mL | solubility ([4]; ethanol:water 90:10, organic solvent or mixture, ethanol:water 90:10 (9:1), read-out: Solubility (approximate)): > 21 mg/mL | solubility ([4]; ethanol:water 99:1, organic solvent or mixture, ethanol:water 99:1, read-out: Solubility (approximate)): < 25 mg/mL | Observations ([1]; ~23% RH, 4 weeks): looks dry | Observations ([1]; ~32% RH, 4 weeks): looks dry | % water ([2]; ~9-11% RH, 11 days): 1.70% | Moles of water ([2]; ~9-11% RH, 11 days): 0.33 mol | % water ([2]; ~23% RH, 4 weeks): 2.96% | Moles of water ([2]; ~23% RH, 4 weeks): 0.59 mol | % water ([2]; ~32% RH, 4 weeks): 3.24% | Moles of water ([2]; ~32% RH, 4 weeks): 0.65 mol | Stability at relative humidity ([3]; 31% relative humidity, after two weeks): stable | Stability at relative humidity ([3]; 43% relative humidity, after five days): stable | Form conversion under high laboratory humidity ([3]; typically 43% to 90% relative humidity, within 1 day to 2 weeks): converts to Form B

Cl.NCCc1c[nH]c(=S)n1[C@H]1COc2c(F)cc(F)cc2C1 [Form B, (R)-5-(2-Aminoethyl)-1-(6,8-difluorochroman-3-yl)-1,3-dihydroimidazole-2-thione hydrochloride]
Solubility (approximate) [4, 6]: <29 mg/mL | Solubility (approximate) ([4]; acetone, hydrochloride): 2 mg/mL | Solubility (approximate) ([4]; acetonitrile:water 95:5, hydrochloride): <27 mg/mL | Solubility (approximate) ([4]; ethanol:water 99:1, hydrochloride): <28 mg/mL | Solubility (approximate) ([4]; ethanol, hydrochloride): 4 mg/mL | Solubility (approximate) ([4]; methanol, hydrochloride): 15 mg/mL | Solubility by kind of solvent (in words) ([4]; organic solvents and aqueous mixtures, hydrochloride): higher solubilities in aqueous solvent mixtures compared to organic solvents | Stability under high relative humidities ([1]; high relative humidities, long periods of time): remain stable | Change in the water content on storage ([2]; after 2 days, 3 weeks and 8 weeks at both 75 and 90% RH): No significant changes | % water ([2]; ~55% RH, 8 days): 5.34% | Moles of water ([2]; ~55% RH, 8 days): 1.1 mol | % water ([2]; ~75% RH, 3 weeks): 6.02% | Moles of water ([2]; ~75% RH, 3 weeks): 1.24 mol | % water ([2]; ~75% RH, 8 weeks): 6.12% | Moles of water ([2]; ~75% RH, 8 weeks): 1.26 mol | % water ([2]; ~75% RH, 2 days): 6.23% | Moles of water ([2]; ~75% RH, 2 days): 1.28 mol | % water ([2]; ~90% RH, 3 weeks): 5.99% | Moles of water ([2]; ~90% RH, 3 weeks): 1.23 mol | % water ([2]; ~90% RH, 8 weeks): 6.46% | Moles of water ([2]; ~90% RH, 8 weeks): 1.33 mol | % water ([2]; ~90% RH, 2 days): 6.70% | Moles of water ([2]; ~90% RH, 2 days): 1.39 mol | Stability at relative humidity ([3]; 90% relative humidity): stable | Deliquescence ([3]; 90% relative humidity, after 10 days): no deliquescence was observed | RH stability, XRPD patterns ([3]; after 2 days, 3, 7 and 8 weeks at both 75 and 90% RH): did not change | Form conversion upon desorption (drying) ([3]; drying): convert back to Form A | Weight change ([3]; ~55% RH, 8 days): 10.7 mg | Weight change, % ([3]; ~55% RH, 8 days): 9.5% | Observations ([3]; ~55% RH, 8 days (Table 32)): looks dry | Observations ([3]; ~55% RH, 8 days (Table 33)): looks dry | Observations ([3]; ~75% RH, 3 weeks (Table 32)): looks dry | Observations ([3]; ~75% RH, 3 weeks (Table 33)): looks dry | Observations ([3]; ~75% RH, 7 weeks): looks dry | Observations ([3]; ~75% RH, 8 weeks (Table 32)): looks dry | Observations ([3]; ~75% RH, 8 weeks (Table 33)): looks dry | Weight change ([3]; ~75% RH, 2 days): 11.0 mg | Weight change, % ([3]; ~75% RH, 2 days): 4.5% | Observations ([3]; ~90% RH, 3 weeks (Table 32)): looks dry | Observations ([3]; ~90% RH, 3 weeks (Table 33)): looks dry | Observations ([3]; ~90% RH, 7 weeks): looks dry | Observations ([3]; ~90% RH, 8 weeks (Table 32)): looks dry | Observations ([3]; ~90% RH, 8 weeks (Table 33)): looks dry | Weight change ([3]; ~90% RH, 2 days): 11.6 mg | Weight change, % ([3]; ~90% RH, 2 days): 4.6%
